The numbers were not newly measured in patent US20170119791A1, “METHODS AND COMPOSITIONS FOR DERMATOLOGICAL USE COMPRSING BETAMETHASONE AND BIOPOLYMERS” (APEX LABORATORIES PRIVATE LIMITED, priority 2015, published 2017), which cites them from elsewhere.

Structures are written as SMILES. Read-outs that look alike come from different tables or passages of the source.

`CCC(=O)OCC(=O)[C@@]1(OC(=O)CC)[C@@H](C)C[C@H]2[C@@H]3CCC4=CC(=O)C=C[C@]4(C)[C@@]3(F)[C@@H](O)C[C@@]21C` [Betamethasone dipropionate, 9-fluoro-11β, 17,21-trihydroxy-16β-methylpregna-1,4-diene-3,20-dione 17,21-dipropionate]: the Solubility result by setting is: (in acetone) “freely soluble”; (in alcohol) “sparingly soluble”; (in water) “insoluble”.

With `CCCCC(=O)O[C@]1(C(=O)CO)[C@@H](C)C[C@H]2[C@@H]3CCC4=CC(=O)C=C[C@]4(C)[C@@]3(F)[C@@H](O)C[C@@]21C` [Betamethasone valerate, 9-Fluoro-11β, 17,21-trihydroxy-16β-methylpregna-1,4-diene-3,20-dione 17-valerate], the Solubility result by setting is: (in acetone) “freely soluble”; (in alcohol) “soluble”; (in benzene) “slightly soluble”; (in chloroform) “freely soluble”; (in ether) “slightly soluble”; (in water) “practically insoluble”.
